How the values were obtained:
[1] = test system: Palmer amaranth, waterhemp, kochia, common ragweed or marestail; test: Pot test, foliar spot treatment of weed patches before seeding the crop (Example 1); format: in vivo; settings: spot foliar treatment of 20% of pot area, 50 g/ha, 150 L/ha, 1% Agri-Dex; weeds 14 days old; soybean, corn or cotton seeded immediately after; 21 days in greenhouse
Description: (§1) The evaluation of the herbicidal efficacy is classified into 0 to 100, where the numeral “0” indicates no or little difference in the state of emergence or growth of weeds under test at the time of examination as compared with untreated weeds, and the numeral “100” indicates the complete death of weeds under test or the complete inhibition of emergence or growth of weeds under test.
A pot is filled with a soil, and then Palmer amaranth, waterhemp, kochia, common ragweed or marestail is seeded at a corner portion of the soil. The weeds are grown in a greenhouse for 14 days, and a section including vegetation patches of weeds (20% of the area on the pot) is subjected to foliar treatment with a spray liquid of saflufenacil (prepared by diluting a commercially available formulation of saflufenacil (aqueous suspension concentrate containing 29.74% of saflufenacil, Sharpen, manufactured by BASF) with water containing 1% (w/v) of adjuvant Agri-Dex) at 50 g/ha (as an application amount in a spot-treated section) and a liquid amount of 150 L/ha (as a liquid amount in a spot-treated section). Immediately thereafter, soybean (Genuity Roundup Ready 2 Xtend), corn (Genuity Roundup Ready 2), or cotton (Genuity Roundup Ready 2 Xtend) is seeded in a corner portion different from vegetation patches of weeds in the soil, and grown in the greenhouse for 21 days. This is defined as the invention plot.

[2] = test system: Palmer amaranth, waterhemp, kochia, common ragweed or marestail; test: Pot test, foliar spot treatment of weed patches with the crop growing (Example 2); format: in vivo; settings: spot foliar treatment of 20% of pot area, 50 g/ha, 150 L/ha, 1% Agri-Dex; weeds and soybean, corn or cotton 14 days old; 21 days in greenhouse
Description: as §1
A pot is filled with soil, and then Palmer amaranth, waterhemp, kochia, common ragweed, or marestail is seeded at a corner portion of the soil, and soybean (Genuity Roundup Ready 2 Xtend), corn (Genuity Roundup Ready 2), or cotton (Genuity Roundup Ready 2 Xtend) is seeded at another corner portion of the soil. The weeds and crops are grown in a greenhouse for 14 days, and a section including vegetation patches of weeds (20% of the area on the pot) is subjected to foliar treatment with a spray liquid of saflufenacil (prepared by diluting Sharpen with water containing 1% (w/v) of adjuvant Agri-Dex) at 50 g/ha (as an application amount in a spot-treated section) and a liquid amount of 150 L/ha (as a liquid amount in a spot-treated section). Thereafter, the weeds and crops are grown in the greenhouse for 21 days. This is defined as the invention plot.

SMILES: CC(C)N(C)S(=O)(=O)NC(=O)c1cc(-n2c(=O)cc(C(F)(F)F)n(C)c2=O)c(F)cc1Cl [saflufenacil]
- weed control effect of the invention plot compared with comparative plots (no crop seeded; uniform blanket treatment) [1]: excellent weed control effect
- weed control effect of the invention plot compared with comparative plots (no crop seeded; uniform blanket treatment) [2]: excellent weed control effect

Source: patent publication US12245590B2, “Method for controlling weeds” (SUMITOMO CHEMICAL COMPANY, LIMITED, priority 2019, dated 2025)
